Columns and labels:
[1] = Safety assessment; assay type: in vivo, human; details: 36 healthy male subjects, 7-day treatments
[2] = cited from earlier work
[3] = cited from earlier work; remark: listed apart in the source
[4] = test system: active GLP-1, glucose, glucagon, insulin, and C-peptide; test: Oral glucose tolerance test; assay type: in vivo, human; details: significantly smaller than baseline
[5] = test system: HbA1c; details: 5 mg dose daily for 12 weeks, patients with type 2 DM with inadequate glycemic control with diet and exercise alone; cited from earlier work

| Compound | Number of subjects with AEs possibly related to the study drug(s) [1] [subjects] | Fraction eliminated by renal excretion [2] | Half-life ([3]; after a single administration, doses between 1.25 and 60 mg, first-in-human study) [h] | Dose dependence of pharmacokinetics ([3]; doses between 1.25 and 60 mg, single administration) | Tolerability ([3]; first-in-human study, single administration) | AUC of glucose during OGTT relative to baseline [4] | Reduction of mean HbA1c [5] [% point] | Number of AEs possibly related to the study drug(s) ([1]; all AEs mild) [AEs] |
| --- | --- | --- | --- | --- | --- | --- | --- | --- |
| CN(C)C(=N)N=C(N)N [Metformin, reference compound] | 24 | ~ 90 % of absorbed metformin |  |  |  |  |  |  |
| CC(C)(C)OC[C@@H]1C(=O)NCCN1C(=O)C[C@H](N)Cc1cc(F)c(F)cc1F [Evogliptin] |  |  | ≥ 30 | dose proportional pharmacokinetics | well tolerated | ~ 0.87 fold | 0.66 | 14 |

From article PMC4986685 (Drug Design, Development and Therapy, 2016)
